≈ marks a conversion by molar mass, not a printed value. Where “and” joins values, the source holds several entries; their conditions need not be identical. Identical values can stand only once. Like-named read-outs stand apart in the source and are kept apart here. Values belong to the compound of their own block, whether it stands above or below them.
Legend:
bovine brain tubulin = test: [^3H]CLC binding to tubulin and competition assay
Description: [^3H]CLC binding to tubulin was evaluated by the ultrafiltration method of Takahashi, M., et al., Biochim. Biophys. […] The concentration of unbound [^3H]CLC in the filtrates was determined using a EcoLite™(+) liquid scintillator from ICN Pharmaceuticals Inc. (Costa Mesa, Calif.). Specific bound [^3H]CLC concentrations were determined by adding an excess (×100) of unlabeled CLC to the reaction mixture.
For the competition assay, bovine brain tubulin (0.2 mg/ml) was incubated in the microtubule assembly buffer with 0.5 μM [^3H]CLC and various concentrations of competitors for 20 min at 37° C. [^3H]CLC binding was measured as described above.

[1] = tested on: DU-145 human prostate tumor; test: DU-145 Human Prostate Tumor Xenograft Model; assay type: in vivo, nude mice; conditions: Taxotere alone
Description: Male mice were implanted s.c. by trocar with fragments of DU-145 tumors harvested from s.c. growing tumors in nude male mice hosts. When the tumors reached ˜5 mm×5 mm ( at about 13-17 days) the animals were matched into treatment and control groups. The remainder of the study proceeded as for the HT-29 model, using taxotere as the standard chemotherapy agent.
In this model unless otherwise noted for the individual study, test compound was administered via the intraperitoneal route on Days 1, 3, 5, 8 and 11 (q3d×5); taxotere was administered intravenously on Days 1, 3 and 5 (q2d×3).
The study involved an assessment of t-butyl-phenyalhistin alone and in combination with taxotere.

E. floccosum isolate #2 = test: Antifungal susceptibility testing, broth dilution (NCCLS M38-A); assay type: cell-based, Epidermophyton floccosum
Description: (§1) Antifungal susceptibility testing was accomplished according to the methods outlined in the National Committee for Clinical Laboratory Standards, M38-A “Reference Method for Broth Dilution Antifungal Susceptibility Testing of Conidium-Forming Filamentous Fungi; Approved Standard.” This includes testing in RPMI-1640 with glutamine and without bicarbonate, an inoculum size of 0.4-5×10^4, and incubation at 30 or 35° C. for 48 hours. […] Drug concentrations were 0.03-16 μg/ml for the investigational compounds, 0.015-8 μg/ml for itraconazole and griseofulvin.
(§2) The minimum lethal concentration (MLC) was determined by plating […] from the MIC concentration and each concentration above the MIC. […] When a MIC was obtained, a minimum fungicidal concentration (MFC) was determined to assess the fungistatic/fungicidal nature of the compound. […] The compound is scored as fungistatic if the cells are able to resume growth and fungicidal if no regrowth is possible because the compound had killed the organisms.

E. floccosum isolate #1 = test: as above; assay type: cell-based, Epidermophyton floccosum; conditions: 80% reduction in turbidity
Description: as §1, §2

T. rubrum isolate #1 = test: as above; assay type: cell-based, Trichophyton rubrum; conditions: T. rubrum isolate #1, 80% reduction in turbidity
Description: as §1, §2

T. rubrum isolate #2 = test: as above; assay type: cell-based, Trichophyton rubrum; conditions: for MIC: 80% reduction in turbidity
Description: as §1, §2

[2] = tested on: T. mentagrophytes isolate #1; test: as above; assay type: cell-based, Trichophyton mentagrophytes; conditions: for MIC: 80% reduction in turbidity
Description: as §1, §2

[3] = tested on: T. mentagrophytes isolate #2; test: as above; assay type: cell-based, Trichophyton mentagrophytes; conditions: 80% reduction in turbidity
Description: as §1, §2

A. fumigatus isolate #1 = test: as above; assay type: cell-based; conditions: Aspergillus fumigatus, 80% reduction in turbidity
Description: as §1, §2

A. fumigatus isolate #2 = test: as above; assay type: cell-based; conditions: Aspergillus fumigatus, 80% reduction in turbidity
Description: as §1, §2

[4] = tested on: microtubules in A549 cells; test: Immunofluorescence staining of microtubules; assay type: cell-based, human; conditions: 6 hours incubation
Description: Immunocytochemical staining was performed using the method described by Yahara, I. et al., Cell (1978) 15, 251-259. A549 cells were cultured on glass coverslips and incubated with the test drug for 6 hours. The cells were then fixed with 3.7% formaldehyde for 30 min, permeabilized with 0.2% Triton X-100 for 5 min, and incubated with a mouse monoclonal antibody against α-tubulin (Calbiochem®, Oncogene Research Products, Cambridge, Mass.), followed by incubation with fluorescein isothiocyanate-conjugated goat anti-mouse IgG from Cosmo Bio Co., (Tokyo, Japan), and the cells were examined under an immunofluorescent microscope.

HuVEC monolayer = HuVEC monolayer permeability to FITC-Dextran; assay type: cell-based, human; conditions: FITC-Dextran
Source text: This vascular collapse is preceded by a rapid induction of vascular cell permeability initially to electrolytes and soon after to large molecules. The enhanced permeability of HuVEC cells to a fluorescent-labeled dextran is used as a proxy assay for vascular collapse.

[5] = tested on: tubulin in Human umbilical vein endothelial cells (HuVEC); test: Action on microtubule function, staining for α-tubulin; assay type: cell-based; conditions: 2 μM, thirty minutes exposure
[6] = tested on: MES-SA (Taxol Sensitive) human uterine sarcoma tumor cell line; test: Drug resistant cell line pair, cytotoxicity; assay type: cell-based; conditions: CsA Pretreat versus No CsA
Source text: MES-SA (Taxol Sensitive) and MES-SA DX (Taxol Resistant). This cell line expresses elevated mdr-1 mRNA and P-glycoprotein (an extrusion pump mechanism). Pretreatment with cyclosporin-A (CsA) blocks P-glycoprotein and reinstates activity in the resistant cell line for those compounds for which the resistance is due to elevated P-glycoprotein.

[7] = Trichophyton rubrum, read-out: MIC
[8] = Trichophyton mentagrophytes, read-out: MIC

SMILES: CC(=O)O[C@@]12CO[C@@H]1C[C@H](O)[C@@]1(C)C(=O)[C@H](O)C3=C(C)[C@@H](OC(=O)[C@H](O)[C@@H](NC(=O)OC(C)(C)C)c4ccccc4)C[C@@](O)([C@@H](OC(=O)c4ccccc4)[C@H]21)C3(C)C [Taxotere, reference compound]
NCI established criterion for a positive effect (TGA 58%) [1]: did not reach the NCI established criterion

SMILES: C=CC(C)(C)c1[nH]cnc1/C=C1\NC(=O)[C@H](Cc2ccccc2)NC1=O [NPI2350]
MICs and MFCs (E. floccosum isolate #2): >16 µg/mL
MIC (E. floccosum isolate #1): >16 µg/mL
MIC (T. rubrum isolate #1): >16 µg/mL
MFC (T. rubrum isolate #2): >16 µg/mL
MIC (T. rubrum isolate #2): 0.16 µg/mL (≈ 0.457 µM)
MFC [2]: >16 µg/mL
MIC [2]: 16 µg/mL (≈ 45.7 µM)
MIC [3]: >16 µg/mL

SMILES: CC(=O)O[C@H]1C(=O)[C@@]2(C)[C@H]([C@H](OC(=O)c3ccccc3)[C@]3(O)C[C@H](OC(=O)[C@H](O)[C@@H](NC(=O)c4ccccc4)c4ccccc4)C(C)=C1C3(C)C)[C@]1(OC(C)=O)CO[C@@H]1C[C@@H]2O [Taxol, paclitaxel, reference compound]
microtubule structure (anti α-tubulin staining) [4]: thick microtubule bundles and multiple bright fluorescent aster formation
HuVEC monolayer permeability (HuVEC monolayer): inactive
microtubule depolymerization [5]: did not induce microtubule depolymerization
Ratio No CsA [6]: 0.6 and 0.4

Further lines, with some results ahead:

effect on CLC binding to tubulin (bovine brain tubulin): slightly enhanced
SMILES: CC[C@]1(O)C[C@@H]2CN(CCc3c([nH]c4ccccc34)[C@@](C(=O)OC)(c3cc4c(cc3OC)N(C)[C@H]3[C@@](O)(C(=O)OC)[C@H](OC(C)=O)[C@]5(CC)C=CCN6CC[C@]43[C@@H]65)C2)C1 [VLB, vinblastine, reference compound]

MIC (A. fumigatus isolate #1): 1 µg/mL (≈ 1.42 µM)
SMILES: CCC(C)n1ncn(-c2ccc(N3CCN(c4ccc(OCC5COC(Cn6cncn6)(c6ccc(Cl)cc6Cl)O5)cc4)CC3)cc2)c1=O (stereo not shown) [itraconazole, reference compound]

MIC (E. floccosum isolate #1; Epidermophyton floccosum, read-out: MIC): 2 µg/mL (≈ 5.67 µM)
MIC (T. rubrum isolate #1; [7]): 0.5 µg/mL (≈ 1.42 µM)
MIC (T. rubrum isolate #2; [7]): < 0.015 µg/mL
MIC (A. fumigatus isolate #2): 0.5 µg/mL (≈ 1.42 µM)
MIC [2, 8]: 1 µg/mL (≈ 2.83 µM)
MIC [3, 8]: 2 µg/mL (≈ 5.67 µM)
SMILES: COC1=CC(=O)C[C@@H](C)[C@]12Oc1c(Cl)c(OC)cc(OC)c1C2=O [griseofulvin, reference compound]
MFC (E. floccosum isolate #2; Epidermophyton floccosum, read-out: MICs and MFCs): 4 µg/mL (≈ 11.3 µM)
